{"source": "patent US12241090B2", "about": "“Methods and systems for converting precursor cells into gastric tissues through directed differentiation” (CHILDREN'S HOSPITAL MEDICAL CENTER, priority 2014, dated 2025)", "key": {"[1]": {"tested_on": "human antral gastric organoids (hGOs)", "experiment": "Growth, morphogenesis and endocrine cell specification of human antral gastric organoids at different EGF concentrations", "assay_type": "cell-based", "experimental": "(§1) Following DE induction, cells were treated for three days with growth factors/antagonists in RPMI 1640 with 2.0% dFBS. […] CHIR99021 is a small molecule that stimulates the Wnt signaling pathway. RA (2 μM; Sigma Aldrich) is added on the final day. Three-dimensional growth and antral specification. Posterior foregut spheroids were embedded in Matrigel (BD Biosciences) as previously described^10, 12 and subsequently grown in Advanced DMEM/F12 (Invitrogen) supplemented with N2 (Invitrogen), B27 (Invitrogen), L-glutamine, 10 μM HEPES, penicillin/streptomycin, and EGF (100 ng ml^−1; R&D Systems). For antral specification, RA and noggin were added for the first three days of three-dimensional growth. For endocrine cell specification, the EGF concentration is lowered to 10 ng ml^−1 at day 30.\nThe spheroids were transferred to a three-dimensional in vitro culture system as previously described5, 10, 12. Briefly, spheroids were collected, resuspended in 50 μl Matrigel (BD Biosciences), and plated in a three-dimensional droplet. After Matrigel was allowed to solidify for 10-15 minutes in a tissue culture incubator, spheroids were overlaid with gut media: Advanced DMEM/F12 with N2 (Invitrogen), B27 (Invitrogen), L-glutamine, 10 μM HEPES, penicillin/streptomycin, and EGF (100 ng ml^−1; R&D Systems). For the first three days, RA and Noggin were added to the gut media. Media was replaced every 3-4 days, as necessary. At day 20, organoids were collected and re-plated in fresh Matrigel at dilution of ˜1:12.\nAll tissues were fixed in 4% paraformaldehyde for either one hour at room temperature for frozen processing or overnight at 4° C. for paraffin processing. For frozen sections, tissue was protected in 30% sucrose overnight at 4° C., then embedded in OCT (Tissue-Tek), and cut at 10 μm. For paraffin sections, tissue was processed through a graded ethanol series, followed by xylene, and then embedded in paraffin and cut at 7 μm. Tissue culture cells were fixed for 15 minutes at room temperature and stained directly. For staining, frozen slides were thawed to room temperature and rehydrated in PBS, while paraffin slides were deparaffinized and subjected to antigen retrieval. Slides were blocked in 5% normal donkey serum (Jackson Immuno Research) in PBS plus 0.5% Triton-X for 30 minutes at room temperature. Primary antibodies (listed in Methods Table 1) were diluted in blocking buffer and incubated overnight at 4° C. Slides were washed in PBS and incubated with secondary antibody for one hour at room temperature, and coverslips were mounted using Fluoromount-G (Southern Biotech). Confocal images were captured on a Nikon A1Rsi inverted confocal microscope.\n(§2) Analysis was performed using the ΔΔCT method."}, "[2]": {"tested_on": "hPSC-derived definitive endoderm (DE) cultures", "experiment": "Endoderm patterning of hPSC-derived DE cultures with growth factors/antagonists, qPCR and immunofluorescence", "assay_type": "cell-based, human", "conditions": "CHIR 2 μM, compared with recombinant WNT3A", "description": "Following DE induction, cells were treated for three days with growth factors/antagonists in RPMI 1640 with 2.0% dFBS. […] RA (2 μM; Sigma Aldrich) is added on the final day. Three-dimensional growth and antral specification. Posterior foregut spheroids were embedded in Matrigel (BD Biosciences) as previously described^10, 12 and subsequently grown in Advanced DMEM/F12 (Invitrogen) supplemented with N2 (Invitrogen), B27 (Invitrogen), L-glutamine, 10 μM HEPES, penicillin/streptomycin, and EGF (100 ng ml^−1; R&D Systems). For antral specification, RA and noggin were added for the first three days of three-dimensional growth. For endocrine cell specification, the EGF concentration is lowered to 10 ng ml^−1 at day 30.\nThe media was changed every day."}, "[3]": {"tested_on": "hPSC-derived foregut spheroids", "experiment": "Fundus specification protocol: Wnt signaling at days 6-9 of gastric organoid differentiation, qPCR", "assay_type": "cell-based, human", "conditions": "CHIR 2 uM", "experimental": "Next, the function of Wnt signaling in the regulation of fundus-antrum patterning at days 6-9 of the gastric organoid differentiation protocol was tested. Addition of Wnt3a (at 100 ng/mL and 500 ng/mL) had no effect on spheroid gene expression, but it […] expression of the Wnt target gene Axin2. Thus, the effects of the small molecule CHIR99021 (CHIR; 2 uM) were tested. CHIR99021 stimulates Wnt signaling in a receptor-independent fashion.\nas §2"}, "[4]": {"tested_on": "posterior foregut spheroids", "experiment": "Three-dimensional culture of posterior foregut spheroids with RA, qPCR of organ lineage markers", "assay_type": "cell-based, human", "conditions": "RA (2 μM) for 72 hours (days 6-9)", "experimental": "as §1\nThe spheroids were transferred to a three-dimensional in vitro culture system as previously described5, 10, 12. Briefly, spheroids were collected, resuspended in 50 μl Matrigel (BD Biosciences), and plated in a three-dimensional droplet. After Matrigel was allowed to solidify for 10-15 minutes in a tissue culture incubator, spheroids were overlaid with gut media: Advanced DMEM/F12 with N2 (Invitrogen), B27 (Invitrogen), L-glutamine, 10 μM HEPES, penicillin/streptomycin, and EGF (100 ng ml^−1; R&D Systems). For the first three days, RA and Noggin were added to the gut media. […]"}}, "data": [{"molecule": "EGF: growth factor EGF (R&D Systems) added to gut media", "values": [{"measurement": "endocrine cell formation", "setting": "[1]; EGF 10 ng ml^−1 from day 30-34", "result": "abundance of endocrine cells"}, {"measurement": "organoid diameter", "setting": "[1]; EGF 100 ng mL^−1, over 3-4 weeks, from spheroids <100 μm", "result": "2-4 mm"}, {"measurement": "endocrine cells per organoid", "setting": "[1]; EGF 100 ng ml^−1, 34-day hGOs", "result": "< 1 endocrine cell per organoid"}, {"measurement": "expression of proendocrine transcription factor NEUROG3", "setting": "[1]; high EGF (100 ng ml^−1), qPCR at day 34", "result": "inhibited"}]}, {"molecule": "Cc1c[nH]c(-c2cnc(NCCNc3ccc(C#N)cn3)nc2-c2ccc(Cl)cc2Cl)n1", "note": "[CHIR99021]", "values": [{"measurement": "posteriorizing effects on endoderm", "setting": "[2]", "result": "same posteriorizing effects as recombinant WNT3A"}, {"measurement": "Pdx1 expression levels", "setting": "[3]", "result": "robust repression"}, {"measurement": "expression of fundus-specific markers IRX3 and IRX5", "setting": "[3]", "result": "induced high levels"}, {"measurement": "expression of the intestinal marker Cdx2", "setting": "[3]", "result": "did not induce"}]}, {"molecule": "CC1=C(/C=C/C(C)=C/C=C/C(C)=C/C(=O)O)C(C)(C)CCC1", "note": "[RA, retinoic acid]", "values": [{"measurement": "increase in PDX1 mRNA levels", "setting": "[4]", "result": "> 100", "unit": "fold"}]}]}
